Results: patent US20160257697A1, “THIOPHENE-SUBSTITUTED TETRACYCLIC COMPOUNDS AND METHODS OFUSE THEREOF FOR THE TREATMENT OF VIRAL DISEASES” (priority 2013, published 2016)
Like-named read-outs stand apart in the source and are kept apart here.

Legend:
Test in all cases: microbe, parasite or virus in culture
Assay type in all cases: cell-based, Hepatitis C virus (HCV)
Conditions in all cases: Replicon Assay A
HCV replicon 1AY93H = system: HCV replicon 1AY93H
Method in brief: (§1)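 Compound is added to replicon cells plated at 2000 cells/well (0.5% DMSO, 5% FBS). After 3 days the cells are washed and lysed, and HCV RNA and cyclophilin mRNA are quantified by multiplex RT-PCR against a standard curve of known replicon total RNA.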

HCV replicon 1A = system: HCV replicon 1A
Method in brief: as §1

HCV replicon 2B = system: HCV replicon 2B
Method in brief: as §1

[1] = read-out: 1A Y93H IC50, replicon 1AY93H
[2] = read-out: 1A Y93H IC50, HCV replicon 1A Y93H
[3] = read-out: 2B IC50, HCV replicon 2B
[4] = Hepatitis C virus, HCV replicon 1A

| Structure (SMILES) | IC50 (HCV replicon 1AY93H; [1]) | IC50 (HCV replicon 1A; replicon 1A) | IC50 (HCV replicon 2B; read-out: 2B IC50, replicon 2B) | other results |
| --- | --- | --- | --- | --- |
| CCc1ccc(C2Oc3cc(-c4cnc([C@@H]5CCCN5C(=O)C(NC(=O)OC)C5CCOC(C)(C)C5)[nH]4)cc(F)c3-c3cc4cc(-c5cnc([C@@H]6CCCN6C(=O)[C@@H](NC(=O)OC)C(C)C)[nH]5)ccc4n32)s1 (single isomer, unassigned) [Compound 158] | 1.07 nM | 0.0033 nM | 0.43 nM | – |
| COC(=O)NC(C(=O)N1CCC[C@H]1c1ncc(-c2cc(F)c3c(c2)OC(c2ccc(C4CC4)s2)n2c-3cc3cc(-c4cnc([C@@H]5CCCN5C(=O)[C@@H](NC(=O)OC)C(C)C)[nH]4)ccc32)[nH]1)C1CCOC(C)(C)C1 (single isomer, unassigned) [Compound 210] | 0.52 nM | 0.0018 nM | 0.33 nM | – |
| COC(=O)NC(C(=O)N1CCC[C@H]1c1ncc(-c2ccc3c(c2)cc2n3C(c3cc(C)c(C)s3)Oc3cc(-c4cnc([C@@H]5CCCN5C(=O)[C@@H](NC(=O)OC)C5CCOCC5)[nH]4)cc(F)c3-2)[nH]1)C(C)(C)F (single isomer, unassigned) [Compound 129] | 0.8 nM | 0.001 nM | 1.17 nM | – |
| COC(=O)N[C@H](C(=O)N1CCC[C@H]1c1ncc(-c2cc(F)c3c(c2)OC(c2cc4c(s2)CCC4)n2c-3cc3cc(-c4cnc([C@@H]5CCCN5C(=O)[C@@H](NC(=O)OC)C5CCOCC5)[nH]4)ccc32)[nH]1)C(C)C (single isomer, unassigned) [Compound 621] | – | – | – | IC50 (HCV replicon 1AY93H; [2]): 0.108 nM; IC50 (HCV replicon 1A; HCV replicon 1A): 0.0031 nM; IC50 (HCV replicon 2B; [3]): 0.835 nM |
| CCc1ccc(C2Oc3cc(-c4cnc([C@@H]5CCCN5C(=O)C(NC(=O)OC)C5CCOC(C)(C)C5)[nH]4)cc(F)c3-c3cc4cc(-c5cnc([C@@H]6CCCN6C(=O)[C@@H](NC(=O)OC)C(C)C)[nH]5)ccc4n32)s1 (single isomer, unassigned) [Compound 165] | 0.27 nM | 0.002 nM | 0.24 nM | – |
| [2H]C(C)(C)C(NC(=O)OC)C(=O)N1CCC[C@H]1c1ncc(-c2cc(F)c3c(c2)OC(c2ccc(C4CC4)s2)n2c-3cc3cc(-c4cnc([C@@H]5CCCN5C(=O)[C@@H](NC(=O)OC)C(C)C)[nH]4)ccc32)[nH]1 (single isomer, unassigned) [Compound 29] | 1.32 nM | 0.0024 nM | 1.98 nM | – |
| CCc1ccc(C2Oc3cc(-c4cnc([C@@H]5CCCN5C(=O)[C@@H](NC(=O)OC)C(C)C)[nH]4)cc(F)c3-c3cc4cc(-c5cnc([C@@H]6CCCN6C(=O)C(NC(=O)OC)C6CCOC(C)(C)C6)[nH]5)ccc4n32)s1 (single isomer, unassigned) [Compound 148] | 10.2 nM | 0.0919 nM | 13.2 nM | – |
| COC(=O)N[C@H](C(=O)N1CCC[C@H]1c1ncc(-c2cc(F)c3c(c2)OC(c2cc(C)c(C)s2)n2c-3cc3cc(-c4cnc([C@@H]5C[C@@H](F)CN5C(=O)[C@@H](NC(=O)OC)C(C)C)[nH]4)ccc32)[nH]1)C(C)C (single isomer, unassigned) [Compound 514] | – | – | – | IC50 (HCV replicon 1AY93H; [2]): 0.272 nM; IC50 (HCV replicon 1A; HCV replicon 1A): 0.0474 nM; IC50 (HCV replicon 2B; [3]): 48.5 nM |
| COC(=O)N[C@H](C(=O)N1CCC[C@H]1c1nc(-c2ccc3c(c2)OC(c2ccc(C)s2)n2c-3cc3cc(-c4c[nH]c([C@@H]5NCCN5C(=O)[C@@H](NC(=O)OC)C(C)C)n4)ccc32)c[nH]1)C(C)C (single isomer, unassigned) [Compound 702] | – | – | – | IC50 (HCV replicon 1AY93H; [2]): 3.85 nM; IC50 (HCV replicon 1A; HCV replicon 1A): 0.0074 nM; IC50 (HCV replicon 2B; [3]): 3.98 nM |
| COC(=O)NC(C(=O)N1[C@@H]2C[C@@H]2C[C@H]1c1ncc(-c2ccc3c(c2)cc2n3C(c3ccc(C(F)F)s3)Oc3cc(-c4cnc([C@@H]5CCCN5C(=O)[C@@H](NC(=O)OC)C(C)C)[nH]4)cc(F)c3-2)[nH]1)C1CCOC(C)(C)C1 (single isomer, unassigned) [Compound 414] | – | – | – | IC50 (HCV replicon 1AY93H; [2]): 0.134 nM; IC50 (HCV replicon 1A; [4]): 0.0022 nM; IC50 (HCV replicon 2B; [3]): 0.457 nM |
| COC(=O)N[C@H](C(=O)N1CCC[C@H]1c1ncc(-c2cc(F)c3c(c2)OC(c2csc4ccccc24)n2c-3cc3cc(-c4cnc([C@@H]5CCCN5C(=O)[C@@H](NC(=O)OC)C(C)C)[nH]4)ccc32)[nH]1)C(C)C (single isomer, unassigned) [Compound 324] | 4.89 nM | 0.0014 nM | 7.99 nM | – |
| COC(=O)NC(C(=O)N1CCC[C@H]1c1ncc(-c2ccc3c(c2)cc2n3C(c3ccc(C4CC4)s3)Oc3cc(-c4cnc([C@@H]5CCCN5C(=O)[C@@H](NC(=O)OC)C(C)C)[nH]4)cc(F)c3-2)[nH]1)C1CN(C(=O)OC)C1 (single isomer, unassigned) [Compound 227] | 0.15 nM | 0.0019 nM | 0.17 nM | – |
| COC(=O)N[C@H](C(=O)N1CCC[C@H]1c1ncc(-c2ccc3c(c2)OC(c2ccc(C4CC4)s2)n2c-3c(C)c3cc(-c4cnc([C@@H]5CCCN5C(=O)[C@@H](NC(=O)OC)C(C)C)[nH]4)ccc32)[nH]1)C(C)C (single isomer, unassigned) [Compound 22] | 1.38 nM | 0.002 nM | 1.84 nM | – |
| COC(=O)N[C@H](C(=O)N1CCC[C@H]1c1ncc(-c2cc(F)c3c(c2)OC(c2cc(F)c(C4CC4)s2)n2c-3cc3cc(-c4cnc([C@@H]5CCCN5C(=O)[C@@H](NC(=O)OC)C(C)C)[nH]4)ccc32)[nH]1)C(C)C (single isomer, unassigned) [Compound 71] | 1.09 nM | – | 3.85 nM | IC50 (HCV replicon 1A; Hepatitis C virus, replicon 1A): 0.0013 nM |
| COC(=O)N[C@H](C(=O)N1C[C@H](F)C[C@H]1c1ncc(-c2ccc3c(c2)OC(c2cc4ccccc4s2)n2c-3cc3cc(-c4cnc([C@@H]5C[C@@H](F)CN5C(=O)[C@@H](NC(=O)OC)C5CCOCC5)[nH]4)ccc32)[nH]1)C(C)C (mixture of isomers) [Compound 807] | – | – | – | IC50 (HCV replicon 1AY93H; Hepatitis C virus, read-out: 1A Y93H IC50, HCV replicon 1A Y93H): 0.025 nM; IC50 (HCV replicon 1A; [4]): 0.003 nM; IC50 (HCV replicon 2B; Hepatitis C virus, read-out: 2B IC50, HCV replicon 2B): 2 nM |
| COC(=O)N[C@H](C(=O)N1C[C@H](F)C[C@H]1c1ncc(-c2ccc3c(c2)OC(c2ccc(C)s2)n2c-3cc3cc(-c4cnc([C@@H]5C[C@H]6C[C@H]6N5C(=O)[C@@H](NC(=O)OC)C(C)C)[nH]4)ccc32)[nH]1)C(C)C (single isomer, unassigned) [Compound 707] | – | – | – | IC50 (HCV replicon 1AY93H; [2]): 0.034 nM; IC50 (HCV replicon 1A; HCV replicon 1A): 0.0064 nM; IC50 (HCV replicon 2B; [3]): 0.84 nM |
| COC(=O)NC(C(=O)N1[C@@H]2C[C@@H]2C[C@H]1c1ncc(-c2ccc3c(c2)cc2n3C(c3cc4c(s3)CCC4)Oc3cc(-c4cnc([C@@H]5CCCN5C(=O)[C@@H](NC(=O)OC)C(C)C)[nH]4)cc(F)c3-2)[nH]1)C(C)C (single isomer, unassigned) [Compound 660] | – | – | – | IC50 (HCV replicon 1AY93H; [2]): 1.04 nM; IC50 (HCV replicon 1A; HCV replicon 1A): 0.00338 nM |
| COC(=O)NC(C(=O)N1CCC[C@H]1c1ncc(-c2cc(F)c3c(c2)OC(c2ccc(C4CC4)s2)n2c-3cc3cc(-c4cnc([C@@H]5CCCN5C(=O)C(NC(=O)OC)C5C[C@@H](C)O[C@@H](C)C5)[nH]4)ccc32)[nH]1)C1C[C@@H](C)O[C@@H](C)C1 (single isomer, unassigned) [Compound 304] | 16.8 nM | 0.0455 nM | – | – |
| CC[C@@H]1CC(C(NC(=O)OC)C(=O)N2CCC[C@H]2c2ncc(-c3ccc4c(c3)cc3n4C(c4ccc(C5CC5)s4)Oc4cc(-c5cnc([C@@H]6CCCN6C(=O)[C@@H](NC(=O)OC)C(C)C)[nH]5)cc(F)c4-3)[nH]2)C[C@H](CC)O1 (single isomer, unassigned) [Compound 288] | 16 nM | 0.0046 nM | – | – |
| COC(=O)NC(C(=O)N1[C@@H]2C[C@@H]2C[C@H]1c1ncc(-c2ccc3c(c2)cc2n3C(c3ccc(C4CC4)s3)Oc3cc(-c4cnc([C@@H]5CCCN5C(=O)[C@@H](NC(=O)OC)C(C)C)[nH]4)cc(F)c3-2)[nH]1)C1C[C@@H](C)O[C@@H](C)C1 (single isomer, unassigned) [Compound 274] | 7.87 nM | 0.022 nM | – | – |
| COC(=O)N[C@H](C(=O)N1CCC[C@H]1c1ncc(-c2cc(F)c3c(c2)OC(c2ccc(CC(C)(C)OC)s2)n2c-3cc3cc(-c4cnc([C@@H]5CCCN5C(=O)[C@@H](NC(=O)OC)C(C)C)[nH]4)ccc32)[nH]1)C(C)C (single isomer, unassigned) [Compound 843] | – | – | – | IC50 (HCV replicon 1AY93H; HCV replicon 1A Y93H, read-out: 1A Y93H IC50): 0.329 nM; IC50 (HCV replicon 1A; HCV replicon 1A): 0.0022 nM |
| COC(=O)N[C@H](C(=O)N1CCC[C@H]1c1ncc(-c2cc(F)c3c(c2)OC(c2csc(C4CC4)c2)n2c-3cc3cc(-c4cnc([C@@H]5CCCN5C(=O)[C@@H](NC(=O)OC)C(C)C)[nH]4)ccc32)[nH]1)C(C)C (single isomer, unassigned) [Compound 321] | 5.79 nM | – | – | IC50 (HCV replicon 1A; Hepatitis C virus, replicon 1A): 0.0013 nM |
| COC(=O)N[C@H](C(=O)N1CCC[C@H]1c1ncc(-c2cc(F)c3c(c2)OC(c2cc4ccccc4s2)n2c-3cc3cc(-c4cnc([C@@H]5C[C@H]6C[C@H]6N5C(=O)[C@@H](NC(=O)OC)C(C)C)[nH]4)ccc32)[nH]1)C(C)C (single isomer, unassigned) [Compound 614] | – | – | – | IC50 (HCV replicon 1AY93H; [2]): 2.21 nM; IC50 (HCV replicon 1A; [4]): 0.0015 nM |
| CCc1ccc(C2Oc3cc(-c4cnc([C@@H]5CCCN5C(=O)[C@@H](NC(=O)OC)C(C)C)[nH]4)cc(F)c3-c3cc4cc(-c5cnc([C@@H]6C[C@@H](F)CN6C(=O)C(NC(=O)OC)C6CCOC(C)(C)C6)[nH]5)ccc4n32)s1 (single isomer, unassigned) [Compound 257] | 9.38 nM | 0.0924 nM | – | – |
| COC(=O)NC(C(=O)N1CCC[C@H]1c1ncc(-c2cc(F)c3c(c2)OC(c2ccc(C4CC4)s2)n2c-3cc3cc(-c4cnc([C@@H]5C[C@H]6C[C@H]6N5C(=O)[C@@H](NC(=O)OC)C(C)C)[nH]4)ccc32)[nH]1)C(C)(C)F (single isomer, unassigned) [Compound 100] | 8.26 nM | 0.0242 nM | – | – |
| COC(=O)NC(C(=O)N1CCC[C@H]1c1ncc(-c2cc(F)c3c(c2)OC(c2ccc(C4CC4)s2)n2c-3cc3cc(-c4cnc([C@@H]5CCCN5C(=O)[C@@H](NC(=O)OC)C(C)C)[nH]4)ccc32)[nH]1)C1C[C@@H](C)O[C@@H](C)C1 (single isomer, unassigned) [Compound 187] | 14.8 nM | 0.0664 nM | – | – |
